In data set [1] the test system is MES SA (uterine sarcoma cell line). Put plainly: In vitro cytotoxicity assay (CellTiter-Glo, 72 hours), MES SA. The format is cell-based. As to conditions: Homo sapiens, MES-SA, 72 h. (In general: Cellular ATP, detected with luciferase, serves as a proxy for viable cell number.)
In data set [2] the test system is HEK 293T (human embryonic kidney cancer cell line). The experiment in a line: In vitro cytotoxicity assay (CellTiter-Glo, 72 hours), HEK 293T. The format is cell-based. Conditions: Homo sapiens, HEK-293T, 72 h.
Data set [3] concerns MES SA DX (MES SA cell line with marked multi-drug resistance). The experiment in a line: In vitro cytotoxicity assay (CellTiter-Glo, 72 hours), MES SA DX. As to conditions: for IC50: Homo sapiens, MES-SA, 72 h.
The subject of data set [4] is MES SA, MES SA DX and HEK 293T cells. The experiment in a line: In vitro cytotoxicity assay, structure-activity discussion over the cell lines tested. Conditions: refers to Tables 2 and 3.
Where [5] appears, read: read-out: MES SA, IC50 Value in nM.
The mark [6] stands for this setting: read-out: HEK 293T, IC50 Value in nM.
Setting [7] is: read-out: MES SA DX, IC50 Value in nM.

Read-outs that look alike come from different tables or passages of the source. Where only a bound is given, the exact number is not on record here.

Consider `CCOC(=O)[C@@H](C)C[C@H](Cc1ccccc1)NC(=O)c1csc([C@@H](C[C@H](C(C)C)N(C)C(=O)[C@@H](NC(=O)[C@H]2CCCCN2C)C(C)(C)CC)OC(C)=O)n1` [Tb108, Ethyl (2S,4R)-4-[({2-[(1R,3R)-1-acetoxy-3-{[(2S)-3,3-dimethyl-2-({[(2R)-1-methylpiperidin-2-yl]car-bonyl}amino)pentanoyl](methyl)amino}-4-methylpentyl]-1,3-thiazol-4-yl}carbonyl)amino]-2-methyl-5-phenylpentanoate], for which the IC50 turned out to be 0.95 nM in data set [1] (read-out: MES SA, IC50); 0.95 nM in data set [1] (setting [5]); 0.38 nM in data set [2] (read-out: HEK 293T, IC50); 0.38 nM in data set [2] (setting [6]); 6.08 nM in data set [3] (read-out: MES SA DX, IC50); 6.08 nM in data set [3] (setting [7]). Further, in data set [4], the “cytotoxicity potency (in words, structure-activity discussion)” value (“cytotoxicity potency” for short) was “exceptional potencies”.
As to `CC[C@H](NC(=O)[C@H]1CCCCN1C)C(=O)N(C)[C@H](C[C@@H](OC(C)=O)c1nc(C(=O)N[C@@H](Cc2ccccc2)C[C@H](C)C(=O)O)cs1)C(C)C` [Tb94, (2S,4R)-4-[({2-[(1R,3R)-1-acetoxy-4-methyl-3-{methyl[(2S)-2-({[(2R)-1-methylpiperidin-2-yl]carbonyl}amino)butanoyl]amino}pentyl]-1,3-thiazol-4-yl}carbonyl)amino]-2-methyl-5-phenylpentanoic acid], the 50% inhibitory concentration (IC50) is 0.46 nM in data set [1] (read-out: MES SA, IC50); 0.46 nM in data set [1] (setting [5]); 0.4 nM in data set [2] (read-out: HEK 293T, IC50); 0.4 nM in data set [2] (setting [6]); 89.8 nM in data set [3] (read-out: MES SA DX, IC50); 89.8 nM in data set [3] (setting [7]). Besides, the “cytotoxicity potency” value in data set [4] was “significant potencies”.
Turning to `CC[C@H](C)[C@H](NC(=O)c1nccn1C)C(=O)N(C)[C@H](C[C@@H](OC(C)=O)c1nc(C(=O)N[C@@H](Cc2ccccc2)C[C@H](C)C(=O)OC)cs1)C(C)C` [Tb51], the IC50 in data set [1] (setting [5]), in data set [2] (setting [6]) and in data set [3] (setting [7]) was over 1000 nM throughout. Besides, in data set [4], the “cytotoxicity potency” value is on record as “insignificant or low biological activity”.
Take `CCCC[C@H](NC(=O)[C@H]1CCCCN1C)C(=O)N(C)[C@H](C[C@@H](OC(C)=O)c1nc(C(=O)N[C@@H](Cc2ccccc2)C[C@H](C)C(=O)OCC)cs1)C(C)C` [Tb95, Ethyl (2S,4R)-4-[({2-[(1R,3R)-1-acetoxy-4-methyl-3-{methyl[(2S)-2-({[(2R)-1-methylpiperidin-2-yl]-carbonyl}amino)hexanoyl]amino}pentyl]-1,3-thiazol-4-yl}carbonyl)amino]-2-methyl-5-phenylpentanoate]: the IC50 was 0.937 nM in data set [1] (read-out: MES SA, IC50); 0.937 nM in data set [1] (setting [5]); 0.53 nM in data set [2] (read-out: HEK 293T, IC50); 0.53 nM in data set [2] (setting [6]); over 1000 nM in data set [3] (read-out: MES SA DX, IC50); over 1000 nM in data set [3] (setting [7]). In addition, the “cytotoxicity potency” value in data set [4] is given as “lack of or significantly lower cytotoxicities”.
Take `CCOC(=O)[C@@H](C)CC(Cc1ccccc1)NC(=O)c1csc([C@@H](CC(C(C)C)N(C)C(=O)[C@@H](NC(=O)[C@H]2C[C@H](O[Si](C)(C)C(C)(C)C)CCN2C)C(C)C)OC(C)=O)n1` (stereo in doubt) [Tb77, Ethyl (2S,4S)-4-[({2-[(1R,3S)-1-acetoxy-3-{[(2S)-2-({[(4R)-4-{[tert-butyl(dimethyl)silyl]oxy}-1-meth-ylpiperidin-2-yl]carbonyl}amino)-3-methylbutanoyl](methyl)amino}-4-methylpentyl]-1,3-thiazol-4-yl}carbonyl)amino]-2-methyl-5-phenylpentanoate]: the half-inhibitory concentration (IC50) was 848 nM in data set [1] (setting [5]), over 400 nM in data set [2] (setting [6]) and over 2500 nM in data set [3] (setting [7]). Moreover, the “cytotoxicity potency” value in data set [4] was “insignificant or low biological activity”.
In the same order, the values of `COC(=O)[C@@H](C)C[C@H](Cc1ccc(F)cc1)NC(=O)c1csc([C@@H](C[C@H](C(C)C)N(C)C(=O)[C@@H](NC(=O)[C@H]2CCCCN2C)C2CC2)OC(C)=O)n1` [Tb101, Methyl (2S,4R)-4-[({2-[(1R,3R)-1-acetoxy-3-{[(2S)-2-cyclopropyl-2-({[(2R)-1-methylpiperidin-2-yl]-carbonyl}amino)acetyl](methyl)amino}-4-methylpentyl]-1,3-thiazol-4-yl}carbonyl)amino]-5-(4-fluorophenyl)-2-methylpentanoate] are over 1000 nM, over 1000 nM, over 1000 nM and “loss of activity”.
Take `CCCCN1CCCC[C@@H]1C(=O)N[C@H](C(=O)N(C)[C@H](CCc1nc(C(=O)N[C@@H](Cc2ccccc2)C[C@H](C)C(=O)OC)cs1)C(C)C)[C@@H](C)CC` [PTb-D47]: the 50% inhibitory concentration (IC50) in data set [1] (setting [5]), in data set [2] (setting [6]) and in data set [3] (setting [7]) was over 1000 nM throughout. The “cytotoxicity potency” value in data set [4] is reported as “insignificant or low biological activity”.
`CC(=O)O[C@H](C[C@H](C(C)C)N(C)C(=O)[C@@H](NC(=O)[C@H]1CCCCN1C)C(C)(C)C)c1nc(C(=O)N[C@@H](Cc2ccccc2)C[C@H](C)C(=O)O)cs1` [Tb107, (2S,4R)-4-[({2-[(1R,3R)-1-Acetoxy-3-{[(2S)-3,3-dimethyl-2-({[(2R)-1-methylpiperidin-2-yl]carbonyl}amino)butanoyl](methyl)amino}-4-methylpentyl]-1,3-thiazol-4-yl}carbonyl)amino]-2-methyl-5-phenylpentanoic acid]: the IC50 in data set [1] (read-out: MES SA, IC50) amounted to 0.01 nM; in data set [1] (setting [5]), 0.01 nM; in data set [2] (read-out: HEK 293T, IC50), 0.02 nM; in data set [2] (setting [6]), 0.02 nM; in data set [3] (read-out: MES SA DX, IC50), 4.05 nM; in data set [3] (setting [7]) it was 4.05 nM. For the same molecule, in data set [3], the “cytotoxicities against the marked drug resistant cancer cell line MES SA DX (in words)” value is “relatively potent (low nanomolar)”. For the same molecule, the “cytotoxicity potency” value in data set [4] is on record as “exceptional potencies”.
As for `COC(=O)[C@@H](C)C[C@H](Cc1ccccc1)NC(=O)c1nc([C@@H](C[C@H](C(C)C)N(C)C(=O)[C@@H](NC(=O)[C@H]2CCCCN2C)C(C)C)OC(C)=O)sc1C` [Tb66, Methyl (2S,4R)-4-[({2-[(1R,3R)-1-acetoxy-4-methyl-3-{methyl[(2S)-3-methyl-2-({[(2R)-1-methyl-piperidin-2-yl]carbonyl}amino)butanoyl]amino}pentyl]-5-methyl-1,3-thiazol-4-yl}carbonyl)amino]-2-methyl-5-phenylpentanoate], the IC50 in data set [1] (setting [5]) was 1.03 nM; in data set [2] (setting [6]) it was 0.773 nM; in data set [3] (setting [7]) it was over 1000 nM. The “cytotoxicity potency” value in data set [4] is recorded as “some loss of potency”.
As for `CC[C@H](C)[C@H](NC(=O)[C@H]1CCCCN1C)C(=O)N(C)[C@H](C[C@@H](O)c1nc(C(=O)N[C@@H](Cc2ccccc2)C[C@H](C)C(=O)O)cs1)C(C)C` [Tb58, (2S,4R)-4-[({2-[(1R,3R)-1-Hydroxy-4-methyl-3-{methyl[(2S,3S)-3-methyl-2-({[(2R)-1-methylpiperidin-2-yl]carbonyl}amino)pentanoyl]amino}pentyl]-1,3-thiazol-4-yl}carbonyl)amino]-2-methyl-5-phenylpentanoic acid], the IC50 in data set [1] (setting [5]), in data set [2] (setting [6]) and in data set [3] (setting [7]) was over 1000 nM throughout. Moreover, the “cytotoxicity potency” value in data set [4] is reported as “significant reduction in potency”.
In the case of `CC[C@H](C)[C@H](NC(=O)[C@H]1CCCCN1C)C(=O)N(C)[C@H](CC(=O)c1nc(C(=O)N[C@@H](Cc2ccccc2)C[C@H](C)C(=O)O)cs1)C(C)C` [Tb59, (2S,4R)-2-Methyl-4-[({2-[(3R)-4-methyl-3-{methyl[(2S,3S)-3-methyl-2-({[(2R)-1-methylpiperidin-2-yl]carbonyl}amino)pentanoyl]amino}pentanoyl]-1,3-thiazol-4-yl}carbonyl)amino]-5-phenylpentanoic acid], the IC50 in data set [1] (setting [5]), in data set [2] (setting [6]) and in data set [3] (setting [7]) was over 1000 nM each time. Also, the “cytotoxicity potency” value in data set [4] is recorded as “significant reduction in potency”.
On to `Cc1sc(C(=O)C[C@H](C(C)C)N(C)C(=O)[C@@H](NC(=O)[C@H]2CCCCN2C)C(C)C)nc1C(=O)N[C@@H](Cc1ccccc1)C[C@H](C)C(=O)O` [Tb68, (2S,4R)-2-Methyl-4-[({5-methyl-2-[(3R)-4-methyl-3-{methyl[(2S)-3-methyl-2-({[(2R)-1-methyl-piperidin-2-yl]carbonyl}amino)butanoyl]amino}pentanoyl]-1,3-thiazol-4-yl}carbonyl)amino]-5-phenylpentanoic acid], for which the IC50 in data set [1] (setting [5]), in data set [2] (setting [6]) and in data set [3] (setting [7]) was over 1000 nM throughout. Moreover, the “cytotoxicity potency” value in data set [4] is on record as “significant reduction in potency”.
On to `CC(=O)O[C@H](C[C@H](C(C)C)N(C)C(=O)[C@@H](NC(=O)[C@H]1CCCN1C)C(C)C)c1nc(C(=O)N[C@@H](Cc2ccccc2)C[C@H](C)C(=O)O)c(C)s1` [Tb71, (2S,4R)-4-[({2-[(1R,3R)-1-Acetoxy-4-methyl-3-{methyl[(2S)-3-methyl-2-({[(2R)-1-methylpyrrolidin-2-yl]carbonyl}amino)butanoyl]amino}pentyl]-5-methyl-1,3-thiazol-4-yl}carbonyl)amino]-2-methyl-5-phenylpentanoic acid], for which the IC50 in data set [1] (setting [5]) was 1.42 nM; in data set [2] (setting [6]) it was 0.408 nM; in data set [3] (setting [7]), over 1000 nM. In data set [4], the “cytotoxicity potency” value is listed as “significant loss of potency”.

By IC50 is commonly meant the concentration needed to halve the response being measured.

(Values after patent US11274124B2, “Tubulysin analogues as anticancer agents and payloads for antibody-drug conjugates and methods of treatment therewith” (William Marsh Rice University, priority 2017, dated 2022).)
